The source of these data is US20150322038A1, “PYRAZINE DERIVATIVES AND THEIR USE IN THE TREATMENT OF NEUROLOGICAL DISORDERS” (NOVARTIS AG, priority 2009, published 2015).

As usually defined, the IC50 is the concentration needed to halve the response being measured.

Counter-ions that a name gives are not always drawn.

Assay [1] concerns cellular release of amyloid peptide 1-40. In words: Test 4: Inhibition of cellular release of amyloid peptide 1-40. Particulars: Cricetulus griseus, Chinese hamster ovary cells transfected with the gene for amyloid precursor protein, 24 hours with compound, amyloid peptide 1-40 in supernatant, read-out: Bace IC50. The assay is classed as cell-based. The protocol: Test 4: Inhibition of Cellular Release of Amyloid Peptide 1-40
Chinese hamster ovary cells are transfected with the gene for amyloid precursor protein. The cells are plated at a density of 8000 cells/well into 96-well microtiter plates and cultivated for 24 hours in DMEM cell culture medium containing 10% FCS. The test compound is added to the cells at various concentrations, and the cells are cultivated for 24 hours in the presence of the test compound. The supernatants are collected, and the concentration of amyloid peptide 1-40 is determined using state of the art immunoassay techniques, for example sandwich ELISA, homogenous time-resolved fluorescence (HTRF) immunoassay, or electro-chemiluminescence immunoassay. The potency of the compound is calculated from the percentage of inhibition of amyloid peptide release as a function of the test compound concentration.

In the next assay the target is human BACE-1 (Homo sapiens, UniProt P56817). In words: Test 1: Inhibition of human BACE-1. It counts as biochemical. Particulars: recombinant BACE-1, pH 4.5, fluorescence-quenched APP-derived peptide substrate. The protocol: Test 1: Inhibition of Human BACE-1
Sequence of human BACE-1 (P56817 46-457 limits assumed): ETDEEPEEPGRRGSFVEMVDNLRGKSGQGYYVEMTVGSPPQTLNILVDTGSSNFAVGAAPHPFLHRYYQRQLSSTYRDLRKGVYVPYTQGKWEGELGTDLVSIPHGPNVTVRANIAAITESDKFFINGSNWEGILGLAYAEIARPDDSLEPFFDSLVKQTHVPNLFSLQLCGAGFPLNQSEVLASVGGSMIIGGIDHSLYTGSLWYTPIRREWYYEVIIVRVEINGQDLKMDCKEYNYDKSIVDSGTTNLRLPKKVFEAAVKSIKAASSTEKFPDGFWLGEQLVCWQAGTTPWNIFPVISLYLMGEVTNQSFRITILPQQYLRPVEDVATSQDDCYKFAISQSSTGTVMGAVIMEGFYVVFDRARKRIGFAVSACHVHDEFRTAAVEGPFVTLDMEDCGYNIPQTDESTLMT
IC50 values are calculated from percentage of inhibition of BACE-1 activity as a function of the test compound concentration.

As to `CN1CC(C)(c2cc(NC(=O)c3ncc(Cl)cc3Cl)ccc2F)N=C(N)C1=O` (stereo not shown) [Example 7, 3,5-Dichloro-pyridine-2-carboxylic acid [3-(6-amino-2,4-dimethyl-5-oxo-2,3,4,5-tetrahydro-pyrazin-2-yl)-4-fluoro-phenyl]-amide hydrochloride], the IC50 in assay [1] turned out to be 160 nM; on human BACE-1 it was 68 nM. Regarding `CC(=O)N1CC(N)=NC(c2cc(NC(=O)c3ncc(OC(F)F)cc3C)ccc2F)(C(F)F)C1` (stereo not shown) [Example 26, 5-Difluoromethoxy-3-methyl-pyridine-2-carboxylic acid [3-(4-acetyl-6-amino-2-difluoromethyl-2,3,4,5-tetrahydro-pyrazin-2-yl)-4-fluoro-phenyl]-amide], the IC50 in assay [1] was found to be 44 nM; at human BACE-1, 23 nM.

`COc1cnc(C(=O)Nc2ccc(F)c([C@]3(C(F)F)CNCC(N)=N3)c2)c(N)n1` (single isomer, unassigned) [Example 28]: the values for the IC50 (in assay [1]; at human BACE-1) were 5.7 nM and 20 nM, respectively.

Turning to `COCCN1CC(C)(c2cc(NC(=O)c3ccc(Br)cn3)ccc2F)N=C(N)C1=O` (stereo not shown) [Example 11, 5-Bromo-pyridine-2-carboxylic acid {3-[6-amino-4-(2-methoxy-ethyl)-2-methyl-5-oxo-2,3,4,5-tetrahydro-pyrazin-2-yl]-4-fluoro-phenyl}-amide hydrochloride], the IC50 stood at 40 nM in assay [1] and 20 nM on human BACE-1. `Cn1cc(N2CC(C)(c3cc(NC(=O)c4ccc(Br)cn4)ccc3F)N=C(N)C2=O)cn1` (stereo not shown) [Example 12, 5-Bromo-pyridine-2-carboxylic acid {3-[6-amino-2-methyl-4-(1-methyl-1H-pyrazol-4-yl)-5-oxo-2,3,4,5-tetrahydro-pyrazin-2-yl]-4-fluoro-phenyl}-amide hydrochloride]: the IC50 in assay [1] was 84 nM; at human BACE-1, 20 nM. `NC1=NC(c2cc(NC(=O)c3ccc(Br)cn3)ccc2F)(C(F)F)CNC1` (stereo not shown) [Example 16, 5-Bromo-pyridine-2-carboxylic acid [3-(6-amino-2-difluoromethyl-2,3,4,5-tetrahydro-pyrazin-2-yl)-4-fluoro-phenyl]-amide]: the IC50 in assay [1] was 6.7 nM; on human BACE-1 it was 30 nM. As to `COCC(=O)N1CC(N)=NC(c2cc(NC(=O)c3ncc(Br)cc3C)ccc2F)(C(F)F)C1` (stereo not shown) [Example 23, 5-Bromo-3-methyl-pyridine-2-carboxylic acid {3-[6-amino-2-difluoromethyl-4-(2-methoxy-acetyl)-2,3,4,5-tetrahydro-pyrazin-2-yl]-4-fluoro-phenyl}-amide], the IC50 in assay [1] was 34 nM; on human BACE-1 it was 7 nM. For `CC(C)N1CC(C)(c2cc(NC(=O)c3ccc(Br)cn3)ccc2F)N=C(N)C1=O` (stereo not shown) [Example 9, 5-Bromo-pyridine-2-carboxylic acid [3-(6-amino-4-isopropyl-2-methyl-5-oxo-2,3,4,5-tetrahydro-pyrazin-2-yl)-4-fluoro-phenyl]-amide hydrochloride] the same measures were 37 nM and 33 nM. For `CN1CC(N)=NC(C)(c2cc(NC(=O)c3ccc(Br)cn3)ccc2F)C1=O` (stereo not shown) [Example 1, 5-Bromo-pyridine-2-carboxylic acid [3-(6-amino-2,4-dimethyl-3-oxo-2,3,4,5-tetrahydro-pyrazin-2-yl)-4-fluoro-phenyl]-amide], the values for the IC50 (in assay [1]; on human BACE-1) were 3200 nM and 4100 nM, respectively.

For `CCN1CC(C)(c2cc(NC(=O)c3ccc(Br)cn3)ccc2F)N=C(N)C1=O` (stereo not shown) [Example 6, 5-Bromo-pyridine-2-carboxylic acid [3-(6-amino-4-ethyl-2-methyl-5-oxo-2,3,4,5-tetrahydro-pyrazin-2-yl)-4-fluoro-phenyl]-amide hydrochloride], the IC50 amounted to 59 nM in assay [1] and 51 nM at human BACE-1. In the case of `COC(=O)N1CC(N)=NC(c2cc(NC(=O)c3ccc(C#N)cn3)ccc2F)(C(F)F)C1` (stereo not shown) [Example 20, 5-Amino-3-{5-[(5-cyano-pyridine-2-carbonyl)-amino]-2-fluoro-phenyl}-3-difluoromethyl-3,6-dihydro-2H-pyrazine-1-carboxylic acid methyl ester], the IC50 in assay [1] turned out to be 57 nM; at human BACE-1, 52 nM. As for `NC1=N[C@@](c2cc(NC(=O)c3ncc(=O)[nH]c3N)ccc2F)(C(F)F)CNC1` [Example 29, 3-Amino-5-oxo-4,5-dihydro-pyrazine-2-carboxylic acid [3-((R)-6-amino-2-difluoromethyl-2,3,4,5-tetrahydro-pyrazin-2-yl)-4-fluoro-phenyl]-amide], the IC50 was 860 nM in assay [1] and 220 nM at human BACE-1.

Consider `CCC1C(N)=NC(C)(c2cccc(NC(=O)c3ccc(Br)cn3)c2)C(=O)N1C` (mixture of isomers) [Example 15, 5-Bromo-pyridine-2-carboxylic acid [3-(6-amino-5-ethyl-2,4-dimethyl-3-oxo-2,3,4,5-tetrahydro-pyrazin-2-yl)-phenyl]-amide], for which the figures for the IC50 (in assay [1]; on human BACE-1) were 980 nM and 1300 nM, respectively. For the compound `Cc1cc(OC(F)F)cnc1C(=O)Nc1ccc(F)c([C@]2(C(F)F)CNCC(N)=N2)c1` (single isomer, unassigned) [Example 27], the 50% inhibitory concentration (IC50) amounted to 12 nM in assay [1] and 22 nM on human BACE-1.

As for `COCCN1CC(C)(c2cc(NC(=O)c3ncc(Cl)cc3Cl)ccc2F)N=C(N)C1=O` (stereo not shown) [Example 10, 3,5-Dichloro-pyridine-2-carboxylic acid {3-[6-amino-4-(2-methoxy-ethyl)-2-methyl-5-oxo-2,3,4,5-tetrahydro-pyrazin-2-yl]-4-fluoro-phenyl}-amide hydrochloride], the results for the half-inhibitory concentration (IC50) (in assay [1]; at human BACE-1) were 74 nM and 34 nM, respectively. Taken in the same sequence, the figures for `Cc1cc(Br)cnc1C(=O)Nc1ccc(F)c(C2(C(F)F)CN(C(=O)OCC(Cl)Cl)CC(N)=N2)c1` (stereo not shown) [Example 22, 5-Amino-3-{5-[(5-bromo-3-methyl-pyridine-2-carbonyl)-amino]-2-fluoro-phenyl}-3-difluoromethyl-3,6-dihydro-2H-pyrazine-1-carboxylic acid 2,2-dichloro-ethyl ester] were 21 nM and 5 nM.

As to `N#Cc1ccc(C(=O)Nc2ccc(F)c(C3(C(F)F)CNCC(N)=N3)c2)nc1` (stereo not shown) [Example 17, 5-Cyano-pyridine-2-carboxylic acid [3-(6-amino-2-difluoromethyl-2,3,4,5-tetrahydro-pyrazin-2-yl)-4-fluoro-phenyl]-amide], the IC50 in assay [1] stood at 74 nM; at human BACE-1, 28 nM. As for `CC1(c2cc(NC(=O)c3ccc(Br)cn3)ccc2F)CN(c2cccnc2)C(=O)C(N)=N1` (stereo not shown) [Example 13, 5-Bromo-pyridine-2-carboxylic acid [3-(6-amino-2-methyl-5-oxo-4-pyridin-3-yl-2,3,4,5-tetrahydro-pyrazin-2-yl)-4-fluoro-phenyl]-amide hydrochloride], the IC50 in assay [1] came out at 280 nM; at human BACE-1, 7 nM. On to `CN1CC(N)=NC(C)(c2cccc(NC(=O)c3ccc(Br)cn3)c2)C1=O` (stereo not shown) [Example 3, 5-Bromo-pyridine-2-carboxylic acid [3-(6-amino-2,4-dimethyl-3-oxo-2,3,4,5-tetrahydro-pyrazin-2-yl)-phenyl]-amide], for which the IC50 in assay [1] was 260 nM; at human BACE-1 it was 400 nM. In the case of `CN1CC(C)(c2cc(NC(=O)c3ccc(Cl)cn3)ccc2F)N=C(N)C1=O` (stereo not shown) [Example 5, 5-Chloro-pyridine-2-carboxylic acid [3-(6-amino-2,4-dimethyl-5-oxo-2,3,4,5-tetrahydro-pyrazin-2-yl)-4-fluoro-phenyl]-amide hydrochloride], the IC50 in assay [1] came out at 190 nM.

For `Cc1cc(Br)cnc1C(=O)Nc1ccc(F)c(C2(C(F)F)CNCC(N)=N2)c1` (stereo not shown) [Example 25, 5-Bromo-3-methyl-pyridine-2-carboxylic acid [3-(6-amino-2-difluoromethyl-2,3,4,5-tetrahydro-pyrazin-2-yl)-4-fluoro-phenyl]-amide], the IC50 amounted to 10 nM in assay [1] and 28 nM at human BACE-1. Regarding `CC(=O)N1CC(N)=NC(c2cc(NC(=O)c3ncc(Br)cc3C)ccc2F)(C(F)F)C1` (stereo not shown) [Example 21, 5-Bromo-3-methyl-pyridine-2-carboxylic acid [3-(4-acetyl-6-amino-2-difluoromethyl-2,3,4,5-tetrahydro-pyrazin-2-yl)-4-fluoro-phenyl]-amide], the 50% inhibitory concentration (IC50) came to 31 nM in assay [1] and 9 nM at human BACE-1. With `N#Cc1ccc(C(=O)Nc2ccc(F)c(C3(C(F)F)CNC(=O)C(N)=N3)c2)nc1` (stereo not shown) [Example 18, 5-Cyano-pyridine-2-carboxylic acid [3-(6-amino-2-difluoromethyl-5-oxo-2,3,4,5-tetrahydro-pyrazin-2-yl)-4-fluoro-phenyl]-amide], the IC50 was found to be 61 nM in assay [1] and 21 nM at human BACE-1. With `CCN1CC(C)(c2cc(NC(=O)c3ccc(C#N)cn3)ccc2F)N=C(N)C1=O` (stereo not shown) [Example 14, 5-Cyano-pyridine-2-carboxylic acid [3-(6-amino-4-ethyl-2-methyl-5-oxo-2,3,4,5-tetrahydro-pyrazin-2-yl)-4-fluoro-phenyl]-amide hydrochloride], the IC50 in assay [1] worked out at 130 nM; at human BACE-1, 63 nM. `CN1CC(N)=NC(C)(c2cc(NC(=O)c3ccc(Br)cn3)ccc2F)C1` (stereo not shown) [Example 2, 5-Bromo-pyridine-2-carboxylic acid [3-(6-amino-2,4-dimethyl-2,3,4,5-tetrahydro-pyrazin-2-yl)-4-fluoro-phenyl]-amide]: the values for the IC50 (in assay [1]; at human BACE-1) were 120 nM and 180 nM, respectively.
